The values that follow come from PMC12049818, “Identification of NUV-244 as a PNPLA3 I148M degrading small molecule” (iScience, 2025).

Structures are written as SMILES.

One series deals with Huh7 cells. In words: Total nuclear count in Huh7 cells. It counts as cell-based, human. Conditions: effective concentrations. The method, then: Indeed, NUV-244 has no effect on total nuclear count at effective concentrations in Huh7 cells and we frequently observed mitotic cells in the Hoechst channel even after 24h incubation (data not shown). This indicates low toxicity of NUV-244 at effective concentrations. We validated this by recording the growth curves of different cell lines upon NUV-244 incubation and found no effects of 1μM or 5μM NUV-244 on the proliferative capacity of Hep3B cells, or Huh7 and LX-2 cells compared to DMSO treated cells (Figure 6A). PNPLA3 I148M expression has been reported to sensitize cells against lipotoxicity and to induce mitochondrial dysfunction.[32]^,[34]^,[35]^,[36]^,[37]
Assay plates were evaluated based on Z’ scores (>0.6) and signal-to-background ratio (>12) using Genedata Screener® for HTS and Condoseo modules (Genedata, Switzerland). Normalization, quality control, and fitting curves for EC50 determination of tested compounds were performed with Genedata Screener® for high-content screening and Genedata Condoseo modules (Genedata AG, Basel, Switzerland). More than 820K cpds were screened on 791 1536W plates in 11 runs covering three weeks of primary HTS. Automated image analysis routines were set up to quantify the number, morphology and intensity of nuclei, lipid droplets and the intensity of PNPLA3 I148M-tagRFP on lipid droplets. […]

The target in the next series is T1, PNPLA3 I148M-tagRFP (Homo sapiens, UniProt Q9NST1, I148M).
T1 construct: host or cells: Huh7
T1 sequence (Q9NST1 1-481 I148M): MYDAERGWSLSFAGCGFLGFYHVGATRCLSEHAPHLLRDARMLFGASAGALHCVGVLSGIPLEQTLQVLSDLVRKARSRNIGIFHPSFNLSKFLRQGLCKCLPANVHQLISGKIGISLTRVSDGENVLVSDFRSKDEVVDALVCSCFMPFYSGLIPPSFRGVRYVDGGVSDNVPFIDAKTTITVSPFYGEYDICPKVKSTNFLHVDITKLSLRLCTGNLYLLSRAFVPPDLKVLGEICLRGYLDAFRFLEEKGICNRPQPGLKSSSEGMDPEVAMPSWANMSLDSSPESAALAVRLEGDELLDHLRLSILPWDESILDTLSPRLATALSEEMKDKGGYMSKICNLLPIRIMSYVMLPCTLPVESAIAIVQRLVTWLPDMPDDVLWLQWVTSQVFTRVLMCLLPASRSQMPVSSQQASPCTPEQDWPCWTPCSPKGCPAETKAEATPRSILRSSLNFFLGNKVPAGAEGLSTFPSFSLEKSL
In words: Western blot anti-PNPLA3, Huh7 PNPLA3 I148M-tagRFP. It counts as cell-based. Particulars: 5µM, 24h. As for the experimental part: For SDS-PAGE and subsequent western blotting cells were harvested in 1x lysis buffer (50 mM Tris-Cl, pH 7.5, 150 mM NaCl, 1 mM EDTA, 1% Triton X-100) supplemented with complete mini protease inhibitor cocktail (Roche). Total protein concentration of samples was determined with a Bicinchoninic Acid (BCA) protein assay. Cell lysates were boiled for 10 min at 99°C with 1x NuPAGE LDS Sample Buffer and loaded onto a 4-12% Tris-Glycine SDS-PAGE gel. For immunoblotting proteins were transferred to a nitrocellulose membrane (0.2 μm pore size, Schleicher & Schuell) and blocked with Intercept (PBS) Blocking buffer (Licor), incubated with primary antibodies anti-PNPLA3 (1:500, C-8 Santa Cruz, SC-390252), anti-PNPLA3 (1:1000, Millipore, MABS2174) and anti-HSP90 (1:1000, Cell Signaling, #4877), and subsequently incubated with secondary antibodies IRDye 680 or IRDye 800 (1:2000; LI-COR Biosciences). Infrared signal was detected using the Odyssey imaging system (Licor). […]
a. Huh7, PNPLA3 I148M b. Huh7, PNPLA3 I148M-tagRFP […]
control NUV-244 control NUV-244
Supplemental Fig. 9: Western Blot NUV-244 a. […] PNPLA3 bands at 53kDa (unmodified in a.) or 80 kDa (PNPLA3 I148M-tagRFP) were quantified (signal above local background, normalized to loading control using LICOR Odyssey CLx / Image Studio) on two independent Western Blots and percent of intensity compared to DMSO controls calculated (Mean +/ - Stdev). […]
On the technique in general: Immunoblotting shows a protein as a band on a membrane.

The target in another series is T2, PNPLA3 I148M (Homo sapiens, UniProt Q9NST1, I148M).
T2 sequence (Q9NST1 1-481 I148M): T1 sequence (Q9NST1 1-481 I148M)
The series can be described thus: Huh7 untagged PNPLA3 I148M immunofluorescence on lipid droplets. It is filed as cell-based. Details: host or cells: Huh7. Particulars: anti-PNPLA3 IF; representative curve, Figure 3E. The method, then: Even though C-terminal tagging is reported not to interfere with PNPLA3 localization,[20] we established an assay to exclude the possibility that C-terminal tagging of PNPLA3 with tagRFP could alter PNPLA3 response to NUV-244 on lipid droplets. For this we generated Huh7 cell lines that express untagged variants of PNPLA3 I148M or PNPLA3 WT and visualized PNPLA3 on lipid droplets by immunofluorescence (Figures 3C, 3D, and S3A).
Cells were fixed with 4% paraformaldehyde for 15 minutes at room temperature. Cells were blocked with 0.2 M glycine, 0.1 mg/mL saponin, and 30 mg/mL bovine serum albumin (BSA) (all Sigma Aldrich) in PBS for 1 hour. Cells were washed 1x with washing buffer (0,1 mg/ml saponin + 1 mg/ml Bovine serum albumin) using a Blue Washer (Blue Cat Bio). Mouse anti-human ADPN (PNPLA3, C-8, #sc-390252, Santa Cruz) and rabbit anti-human PNPLA2 (Sigma Aldrich, #HPA055173-25UL) primary antibodies and appropriate secondary antibodies conjugated with Alexa-Fluor 647 (Jackson ImmunoResearch) were used. […]
Images were acquired by an Opera Phenix confocal spinning disc microscope system (Revvity, Waltham, MA, USA) with a 20x or 40x water objective at 405 nm (Hoechst), 488 nm (BODIPY) and 647 nm. Quantification was carried out with the Harmony (Revvity, Waltham, MA, USA) or MetaXpress software (Molecular Devices). […]

As for `Cc1cccc(Cc2nc(C)c(C(=O)Nc3cc(O)ccc3Cl)s2)c1` [NUV-244], the “effect on total nuclear count” value in the series with Huh7 cells is “no effect”. Besides, the “PNPLA3 band intensity printed on the blot shown (DMSO 100%)” value on PNPLA3 I148M-tagRFP (single blot shown in Fig. S9b) worked out at 72%. The “PNPLA3 band, percent of intensity compared to DMSO controls” value on PNPLA3 I148M-tagRFP (two independent Western Blots, Mean +/- Stdev) is on record as 46+/-4%. The response on PNPLA3 I148M was half-maximal at 153 nM (EC50).

The EC50 is the concentration giving half of the maximal effect.
